PubChem BioAssay AID504748 (National Center for Advancing Translational Sciences (NCATS), 2011)

Tested on: mouse liver microsomes, percent remaining, LC-MS/MS
Assay: Inhibitors of N370S glucocerebrosidase as a Potential Chaperone Treatment of Gaucher Disease: Metabolic Stability Profile
Conditions: at 5 µM; stronger effect = higher value
From the text: Glucocerebrosidase (GC) catalyzes the hydrolysis of beta-glucocerebroside to glucose and ceramide in lysosomes. Mutations in the glucocerebrosidase gene result in Gaucher disease, an autosomal recessive lysosomal storage disorder. Many of the mutations encountered in patients with Gaucher disease are missense alterations that may cause misfolding, decreased stability and/or mistrafficking of this lysosomal protein. […] These inhibitors include iminosugar analogs and three non-iminosugar inhibitors identified from a previous HTS of 62,000 compounds with the wild type recombinant enzyme. After further testing a probe has been identified and was characterized though AMDE tests. Mouse liver microsomes are created through broken up endoplasmic reticulum from mouse liver. These liver microsomes contain many drug metabolizing enzymes, such as Cytochome P-450s and flavin-containing monooxygenases. […] NIH Chemical Genomics Center [NCGC] NIH Molecular Libraries Probe Production Centers Network [MLPCN] MLPCN Grant: MH086442-01 Assay Submitter (PI): Wei Zheng
5uM of compound is incubated with mouse liver microsome; the reference compounds are verapamil and warfarin. Compounds are incubated and samples are analyzed with LC-MS/MS.

percent remaining: 102%
SMILES: S=C(NCCCc1cnc[nH]1)NCCCN(Cc1ccc(Cl)c(Cl)c1)c1ccc(Br)cn1
